Source: ChEMBL document CHEMBL1122462, “Potential antiatherosclerotic agents. 4. [(Functionalized-alkyl)amino]benzoic acid analogues of cetaben” (1983)
Where “and” joins values, the source holds several entries; their conditions need not be identical. Equal values may be shown once.

What was measured:
Rattus norvegicus [1] = test: In vivo Triglyceride lowering activity at dose as 0.03 % of the diet; format: functional
Rattus norvegicus [2] = test: In vivo sterol lowering activity, dosed as 0.03 % of the diet; format: functional
Rattus norvegicus [3] = test: In vivo sterol lowering activity at dose of 0.10 % of the diet; format: functional
Rattus norvegicus [4] = test: In vivo Triglyceride lowering activity at dose as 0.01 % of the diet; format: functional
Rattus norvegicus [5] = test: In vivo Triglyceride lowering activity at a dose of 0.10 % of the diet; format: functional
Rattus norvegicus [6] = test: In vivo Sterol lowering activity at dose as 0.01% of the diet; format: functional
[7] = target: T1, Sterol O-acyltransferase 1 (Rattus norvegicus) (UniProt O70536); test: In vitro inhibitory activity against acyl coenzyme A:cholesterol acyltransferase; parameters: concentration or dose not given beside the values; conditions: concentration not given here
T1 sequence (whole entry): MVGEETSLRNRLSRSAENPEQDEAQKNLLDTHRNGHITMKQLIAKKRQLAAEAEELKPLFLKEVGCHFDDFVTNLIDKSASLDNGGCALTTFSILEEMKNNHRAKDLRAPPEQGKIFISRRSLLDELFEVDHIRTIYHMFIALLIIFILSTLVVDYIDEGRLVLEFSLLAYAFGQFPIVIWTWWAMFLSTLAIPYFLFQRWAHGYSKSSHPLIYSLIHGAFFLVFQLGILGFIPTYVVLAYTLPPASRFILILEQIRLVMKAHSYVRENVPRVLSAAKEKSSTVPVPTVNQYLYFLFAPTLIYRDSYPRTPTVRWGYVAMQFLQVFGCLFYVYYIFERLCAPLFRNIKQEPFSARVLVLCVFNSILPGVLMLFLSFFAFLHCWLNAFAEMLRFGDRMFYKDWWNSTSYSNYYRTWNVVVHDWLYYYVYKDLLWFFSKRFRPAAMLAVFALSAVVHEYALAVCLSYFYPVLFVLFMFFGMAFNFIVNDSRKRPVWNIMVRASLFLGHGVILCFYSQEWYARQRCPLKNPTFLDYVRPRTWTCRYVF

Compound	triglyceride lowering activity (Rattus norvegicus [1]) [%]	serum sterol level, percent of control (Rattus norvegicus [2]) [%]	serum sterol level, % of control (Rattus norvegicus [3]) [%]	serum triglyceride level (% of control) (Rattus norvegicus [4]) [%]	serum triglyceride level (% of control) (Rattus norvegicus [5]) [%]	serum sterol level, percent of control (Rattus norvegicus [6]) [%]	inhibition [7]
O=C(O)c1ccc(NCCCCCCCCCCCCCCCC(F)(F)F)cc1	<41	<72	<61	<46	<42	<75	–
CCOC(=O)c1ccc(NCCCCCCCCCCCCCCCCS)cc1	–	–	90	–	<51	–	8%
CCCCCCCCCCC(C)(O)CCCCCNc1ccc(C(=O)O)cc1 (configuration not stated)	–	–	<73	–	<37	–	< 53%
C[Si](C)(C)CCCCCCCCCCCCCCNc1ccc(C(=O)O)cc1 [listing 1 of 2 here]	<38	<51	<40	<59	<30	<70	–
CCOC(=O)c1ccc(NC(=O)CCCCCCCCCCBr)cc1	–	–	115	–	100	–	< 71%
CCOC(=O)c1ccc(NCCCCCCCCCCNc2ccc(C(=O)OCC)cc2)cc1	–	–	140	–	98	–	7%
C[Si](C)(C)CCCNc1ccc(C(=O)O)cc1 [listing 1 of 2 here]	<58	90	<82	<69	<47	100	–
CCOC(=O)c1ccc(NCCCCCCCCCCCO)cc1	–	–	94	–	93	–	< 60%
CCCCCCCCCCCCCCCC(=O)Nc1ccc(C(=O)OCC)cc1	–	–	91	–	–	–	–
CCCCCCCCCCC(O)CCCCCNc1ccc(C(=O)O)cc1 (configuration not stated)	<43	96	<86	<66	<31	104	–
CCCCSCCCCCCCCCCC(=O)Nc1ccc(C(=O)OC)cc1	–	–	92	–	81	–	< 56%
O=C(O)c1ccc(NCCCCCCCCCCNc2ccc(C(=O)O)cc2)cc1	–	–	93	–	100	–	8%
CCOC(=O)c1ccc(NCCCCCCCCCCCCCCCCSCC)cc1	–	–	<89	–	<58	–	< 10%
COC(=O)c1ccc(NC(=O)CCCCCCCCCCOc2ccc(C(=O)OC)cc2)cc1	–	–	94	–	118	–	< 63%
C[Si](C)(C)CCCNc1ccc(C(=O)O)cc1 [listing 2 of 2 here]	–	–	–	–	–	–	< 23% and 12%
C[Si](C)(C)CCCCCCCCCCCNc1ccc(C(=O)[O-])cc1.[Na+]	88	<73	<48	122	<46	<81	–
CC(C)(C)CCCCCCCCCCCCCCNc1ccc(C(=O)O)cc1	–	–	–	–	–	–	< 74%
Br.CCOC(=O)c1ccc(NC(=O)CCCCCCCCCCSC(=N)N)cc1	–	–	92	–	96	–	< 91%
CCCCCCCCCCC(O)CCCCCNc1ccc(C(=O)OCC)cc1 (configuration not stated)	–	–	93	–	<39	–	< 51%
C[Si](C)(C)CCCCCCCCCCCNc1ccc(C(=O)O)cc1	–	–	–	–	–	–	< 56%
CCCCCCCCCCC(C)(O)CCCCCNc1ccc(C(=O)OCC)cc1 (configuration not stated)	–	–	<82	–	<28	–	< 59%
CCOC(=O)c1ccc(NCCCCCCCCCCCC2CCCCC2)cc1	–	–	80	–	<50	–	12%
O=C(O)c1ccc(N2CCCC2=O)cc1	–	–	–	–	–	–	0%

Compound	triglyceride lowering activity (Rattus norvegicus [1]) [%]	serum sterol level, percent of control (Rattus norvegicus [2]) [%]	serum sterol level, % of control (Rattus norvegicus [3]) [%]	serum triglyceride level (% of control) (Rattus norvegicus [4]) [%]	serum triglyceride level (% of control) (Rattus norvegicus [5]) [%]	serum sterol level, percent of control (Rattus norvegicus [6]) [%]	inhibition [7]
CCCCCCCCCCC(CCCCCNc1ccc(C(=O)OCC)cc1)SC(C)=O (configuration not stated)	–	–	94	–	<46	–	< 26%
CCOC(=O)c1ccc(NCCCCCCCCCCCOc2ccc(C(=O)OC)cc2)cc1	–	–	100	–	<72	–	< 52%
CCCCCCCCCCCCCCCCN(CS(=O)(=O)[O-])c1ccc(C(=O)[O-])cc1.[Na+].[Na+]	95	91	<75	77	89	89	–
C[Si](C)(C)CCCCCCCCCCCCCCNc1ccc(C(=O)[O-])cc1.[Na+]	<43	<56	<39	<55	<22	75	–
O=C([O-])c1ccc(NCCCCCCCCCCCCCCCC(F)(F)F)cc1.[Na+]	<39	<62	<34	<63	<21	<75	–
COCCCCCCCCCCCCCCCCN(C(C)=O)c1ccc(C(=O)O)cc1	–	–	100	–	93	–	< 22%
C[Si](C)(C)CCCNc1ccc(C(=O)[O-])cc1.[Na+]	85	<82	<64	102	<77	87	–
O=C([O-])CCCCCCCCCCCCCCCNc1ccc(C(=O)[O-])cc1.[Na+].[Na+]	97	102	106	93	132	102	–
O=C(O)c1ccc(NCCCCCCCCCCCSc2ccc(C(=O)O)cc2)cc1	92	104	98	–	78	–	< 29%
O=C(O)CCCCCCCCCCCCCCCNc1ccc(C(=O)O)cc1 [listing 1 of 2 here]	90	92	92	124	96	101	–
C[Si](C)(C)CCCCCCCCCCCCCCNc1ccc(C(=O)O)cc1 [listing 2 of 2 here]	–	–	–	–	–	–	< 60%
CCOC(=O)c1ccc(N(CCCCCCCCCCCBr)C(=O)OCc2ccccc2)cc1	–	–	100	–	91	–	< 71%
CCOC(=O)c1ccc(NCCCCCCCCCCCNc2ccc(C(=O)OCC)cc2)cc1	–	–	92	–	67	–	< 68%
CCOC(=O)c1ccc(NC(=O)C(F)(F)C(F)(F)C(F)(F)C(F)(F)C(F)(F)C(F)(F)C(F)(F)F)cc1	<43	<73	<69	<61	–	<68	0%
CC(C)(C)CCCCCCCCCCCCCCNc1ccc(C(=O)[O-])cc1.[Na+]	<55	<53	<44	<66	<30	<72	–
O=C(O)CCCCCCCCCCCCCCCNc1ccc(C(=O)O)cc1 [listing 2 of 2 here]	–	–	–	–	–	–	0% and 9%
O=C(O)c1ccc(NCCCCCCCCCCCCNc2ccc(C(=O)O)cc2)cc1	–	–	103	–	89	–	< 60%
CCCCCCCCCCCCCCCCN(CS(=O)(=O)O)c1ccc(C(=O)O)cc1	–	–	–	–	–	–	7% and < 32%
CCOC(=O)c1ccc(NCCCCCCCCCCCSc2ccc(C(=O)OCC)cc2)cc1	–	–	102	–	132	–	< 45%
CCCCOCCCCCCCCCCCNc1ccc(C(=O)O)cc1	–	–	91	74	<44	<86	< 62%
CCOC(=O)c1ccc(NCCCCCCCCCCCCNc2ccc(C(=O)OCC)cc2)cc1	–	–	103	–	<68	–	2%
CCCCCCCCCCC(S)CCCCCNc1ccc(C(=O)O)cc1 (configuration not stated)	–	–	84	–	<43	–	< 79%
